Assay results as given in US20100028259A1, “USE OF ORGANIC CATION TRANSPORTERS FOR CANCER DIAGNOSIS AND THERAPY” (The Regents of the University of California, priority 2006, published 2010).

How the values were obtained:
[1] = tested on: HEK-hOCT2 cells; assay: MTT drug sensitivity assay in HEK-hOCT2 cells; format: cell-based, human; details: same test conditions as oxaliplatin MTT assay in HEK cells
Description: (§1) Cytotoxicity of the platinum-based compounds was measured by MTT (thiazolyl blue tetrazolium bromide) assay. Cells were seeded in 100 μl of the culture medium without any antibiotics in 96-well plates at a predetermined cell density. For HEK 293 cells, poly-D-lysine coated plates were used. […] For the OCT inhibitor studies, the inhibitors (i.e., disopyramide or cimetidine) were added to the medium at a specified concentration immediately before the addition of the platinum-based compounds. After incubation for a specified time period, the drug-containing medium was replaced with fresh, drug-free medium and the incubation was continued for a total of 72 hours (start from the addition of platinum-based compounds). Then, the MTT assay was performed similarly as described in Alley et al., Cancer Res., 48:589-601 (1988). […] The maximal cell growth was the cell growth in the medium without any platinum-based compounds; C is the concentration of the platinum-based compound, and γ is the slope factor.
(§2) Briefly, the cells were seeded in 96-well plates at a density of 5,000 cells/well for the transfected MDCK cells or 12,000 cells/well for the transfected HEK 293 cells. The platinum-based drugs were added on the following day. After the specified time periods of drug exposure, the drug-containing medium was replaced with fresh, drug-free medium, and the incubation was continued for a total of 72 hours (start from the time when the drug was added). After incubation, the cell growth was determined by an MTT assay. Data are expressed as mean±SD from 3 to 6 independent experiments with each performed in quadruplicate. The resistance factor (RF) was defined as the ratio of the mean IC50 value in the MOCK cells to that in the OCT-transfected cells.

[2] = target: human OCT2 (Homo sapiens, UniProt O15244); details: inhibitor 1.5 mM
human OCT2, sequence (O15244 whole entry): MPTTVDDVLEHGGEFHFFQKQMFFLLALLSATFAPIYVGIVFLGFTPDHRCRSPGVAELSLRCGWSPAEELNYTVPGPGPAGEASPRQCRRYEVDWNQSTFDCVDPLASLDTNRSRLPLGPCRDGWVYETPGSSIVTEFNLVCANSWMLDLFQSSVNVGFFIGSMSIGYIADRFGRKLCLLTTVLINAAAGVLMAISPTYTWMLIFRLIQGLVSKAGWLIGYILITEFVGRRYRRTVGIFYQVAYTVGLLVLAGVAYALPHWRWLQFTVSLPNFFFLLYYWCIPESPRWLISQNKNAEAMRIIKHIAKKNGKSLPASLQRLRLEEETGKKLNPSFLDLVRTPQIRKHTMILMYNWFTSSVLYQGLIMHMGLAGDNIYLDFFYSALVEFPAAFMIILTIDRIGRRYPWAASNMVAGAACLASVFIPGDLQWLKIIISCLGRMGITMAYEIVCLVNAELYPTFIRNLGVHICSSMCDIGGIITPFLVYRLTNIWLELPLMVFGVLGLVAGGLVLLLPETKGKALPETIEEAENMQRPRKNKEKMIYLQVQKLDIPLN
Description: (§3) (A) The expression of human OCT1, OCT2, or OCT3 was determined in the cell lines stably transfected with human OCTs (MDCK-hOCT1, HEK-hOCT2, or HEK-hOCT3) or the corresponding empty vectors (MOCK cells) by RT-PCR as described in Example 1. The dog and human GAPDH were used as the expression control for the transfected MDCK and HEK 293 cells, respectively. Lanes 1-6: MDCK-MOCK, MDCK-hOCT1, HEK-MOCK, HEK-hOCT2, HEK-MOCK, and HEK-hOCT3. (B) The cellular uptake of model substrates (TEA for human OCT1 and OCT2; MPP^+ for human OCT3) was determined in OCT-transfected cells (solid bars) and in the corresponding MOCK cells (open bars). Disopyramide (120 μM) was used as an inhibitor for human OCT1 and cimetidine (1.5 mM) was used as an inhibitor for human OCT2 and OCT3. Data are expressed as mean±SD of six measurements.
(§4) MDCK or HEK 293 cells were grown in 24-well plates to >90% confluence in the culture medium without any antibiotics. The poly-D-lysine coated plates were used for HEK 293 cells. The cells were washed with 1×PBS first and then incubated in the uptake buffer (1×PBS) containing 10 μM ^14C-TEA or 2 μM ^3H-MPP^+ as specified. For the OCT inhibitor studies, the indicated OCT inhibitor (i.e., disopyramide or cimetidine) was added to the uptake buffer at specified concentration together with the radioactive substrate. […]

[3] = target: human OCT3 (Homo sapiens, UniProt O75751); details: inhibitor 1.5 mM
human OCT3, sequence (O75751 whole entry): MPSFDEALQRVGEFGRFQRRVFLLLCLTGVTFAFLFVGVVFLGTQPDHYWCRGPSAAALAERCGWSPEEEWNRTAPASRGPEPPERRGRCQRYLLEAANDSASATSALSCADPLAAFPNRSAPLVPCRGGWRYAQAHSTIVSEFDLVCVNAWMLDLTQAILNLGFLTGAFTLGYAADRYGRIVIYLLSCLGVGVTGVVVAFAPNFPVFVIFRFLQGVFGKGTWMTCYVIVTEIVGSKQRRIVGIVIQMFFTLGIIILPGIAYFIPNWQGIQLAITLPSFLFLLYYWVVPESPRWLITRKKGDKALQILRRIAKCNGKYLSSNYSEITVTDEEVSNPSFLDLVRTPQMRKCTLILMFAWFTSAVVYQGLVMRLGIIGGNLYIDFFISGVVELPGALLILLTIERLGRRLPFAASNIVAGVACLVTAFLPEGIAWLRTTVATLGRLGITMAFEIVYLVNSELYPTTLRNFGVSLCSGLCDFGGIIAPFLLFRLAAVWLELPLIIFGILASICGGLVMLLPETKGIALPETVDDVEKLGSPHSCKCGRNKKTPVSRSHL
Description: as §3, §4

[4] = tested on: MDCK-hOCT1 cells; assay: MTT drug sensitivity assay in MDCK-hOCT1 cells; format: cell-based, canine; details: same test conditions as oxaliplatin MTT assay in MDCK cells
Description: as §1, §2
Briefly, MDCK cells were seeded at a density of 5,000 cells/well in 96-well plates and exposed to the test compounds for 7 hours on the following day. After incubation for a total of 72 hours, the cell growth was determined by an MTT assay. The data for carboplatin was taken from Table 1 and was not determined simultaneously with the other compounds. The resistance factor (RF) was defined as the ratio of the mean IC50 value in MDCK-MOCK cells to that in MDCK-hOCT1 cells. Data are expressed as mean±SD from six measurements, and each measurement was performed in quadruplicate.

[5] = target: T1, human OCT1 (Homo sapiens, UniProt O15245); assay: Cellular uptake of TEA in MDCK-hOCT1 cells, OCT inhibitor; format: cell-based, canine; details: inhibitor 120 μM
T1 construct: stably transfected with the full length human OCT1 cDNA (MDCK-hOCT1); expressed in transfected cells
T1 sequence (O15245 1-554): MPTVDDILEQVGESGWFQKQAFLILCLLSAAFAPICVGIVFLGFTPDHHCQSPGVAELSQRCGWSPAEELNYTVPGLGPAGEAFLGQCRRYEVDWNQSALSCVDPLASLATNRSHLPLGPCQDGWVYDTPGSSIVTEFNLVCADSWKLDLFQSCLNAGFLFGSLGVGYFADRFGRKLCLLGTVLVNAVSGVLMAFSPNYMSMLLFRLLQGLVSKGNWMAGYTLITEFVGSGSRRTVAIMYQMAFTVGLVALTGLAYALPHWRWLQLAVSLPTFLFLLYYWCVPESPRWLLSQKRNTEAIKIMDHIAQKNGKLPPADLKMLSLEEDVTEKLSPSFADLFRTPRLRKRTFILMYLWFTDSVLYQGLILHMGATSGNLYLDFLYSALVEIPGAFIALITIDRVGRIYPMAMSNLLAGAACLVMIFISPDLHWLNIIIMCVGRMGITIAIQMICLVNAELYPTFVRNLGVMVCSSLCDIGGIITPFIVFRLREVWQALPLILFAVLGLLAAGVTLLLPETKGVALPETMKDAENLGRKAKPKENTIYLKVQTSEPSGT
Description: as §3, §4

| effect on uptake of TEA in HEK-hOCT2 [2] | effect on uptake of MPP+ in HEK-hOCT3 [3] | effect on uptake of TEA in MDCK-hOCT1 [5] | Compound | cytotoxicity of the OCT inhibitor itself (no cytotoxicity up to a concentration of) [1] | cytotoxicity of the OCT inhibitor itself (no cytotoxicity up to a concentration of) [4] |
| --- | --- | --- | --- | --- | --- |
| substantially decreased | substantially decreased |  | CN/C(=N/CCSCc1nc[nH]c1C)NC#N [cimetidine] | > 5 mM |  |
|  |  | substantially decreased | CC(C)N(CCC(C(N)=O)(c1ccccc1)c1ccccn1)C(C)C (centres unmarked) [disopyramide] |  | > 400 µM |
